Values quoted from earlier work in patent US8952001B2, “Amino-heteroaryl derivatives as HCN blockers” (Merck Sharp & Dohme Corp., priority 2009, dated 2015).
Read-outs that look alike come from different tables or passages of the source.

What was measured:
[1] = tested on: ectopic discharges in A-beta and A-delta fibres; details: without causing conduction block
[2] = tested on: nerve injured myelinated DRG
mechanical allodynia [3] = details: local administration to the sciatic nerve 4 h after surgery in rats; Brennan model
mechanical allodynia [4] = details: intraperitoneal administration; Chung/von Frey
allodynia = details: rat CFA model of inflammatory pain
spontaneous pain = details: rat, mild thermal injury model

Structure (SMILES): CCN(c1ccccc1)c1cc(=NC)n(C)c(C)n1.Cl [ZD 7288]
- firing frequency of ectopic discharges [1]: reduced the firing frequency of ectopic discharges
- spontaneous activity [2]: reduces spontaneous activity
- mechanical allodynia (mechanical allodynia [3]): attenuates mechanical allodynia
- mechanical allodynia (mechanical allodynia [4]): dose-dependently reverses mechanical allodynia
- allodynia (allodynia): suppresses allodynia
- spontaneous pain (spontaneous pain): blocks spontaneous pain
